Source: US20260356879A1, “CELASTROL DERIVATIVES” (Celloram Inc., priority 2022, published 2026)
Like-named read-outs stand apart in the source and are kept apart here. Each block holds one compound with its values, some of them ahead of it.

Experiments:
NF-kB = NF-kB luciferase reporter assay (HepG2 NF-kB-Luc reporter cells, IL-1β stimulated); format: cell-based, human; conditions: for IC50: Homo sapiens; for % IC50 relative to Celastrol: relative to celastrol (compound 1)
Method: HepG2 NF-kB-Luc reporter cells stimulated with IL-1β (20 ng/ml) and the relative NF-kB luciferase activity (RLU) was determined for each of celastrol (compound 1) and each of the exemplary derivative compounds at the following eight point concentrations: 10 μM, 5 μM, 2.5 μM, 1.25 μM, 0.63 μM, 0.31 μM, 0.16 μM, 0.016 μM, and 0 μM). Assay values were plotted (not shown) and IC50 inhibitory concentrations were calculated after normalization using Prizm 9.0 software.
This example illustrates a study of the anti-inflammatory potential of an exemplary celastrol derivative of the present disclosure (compound 22) using an NF-κB luciferase promoter reporter gene assay in the human liver cancer cell line, HepG2.
NF-kB luciferase reporter assay: The celastrol derivative, compound 22 (prepared as described in Example 13) and the parent molecule, compound 1 (celastrol), were freshly dissolved in DMSO. HepG2 NF-κB reporter cells were seeded (2.5×10^4/well) in 96-well plate and then pre-treated with either compound 22 or compound 1 at the 8-point concentrations of 10, 5, 2.5, 1.25, 0.63, 0.31, 0.16, 0.016, or 0 μM, respectively, and the NF-κB promoter was activated by adding IL-1β (20 ng/ml) to the cells. After 18 hours, the cells were harvested by adding the 1× passive cell lysis buffer (Promega) and followed by measurement of the relative NF-kB luciferase activity (RLU) using GloMax discover microplate reader (Promega). Inhibitory concentrations (IC50) after normalization using Prizm 9.0 software.

THP-1 cells [1] = assay: LDH release (NLRP3 inflammasome-induced cytotoxicity) in THP-1 cells; format: cell-based, human; conditions: THP-1, LPS and Nigericin, FIG. 7B
Source text: (§1) Pyroptosis, a pro-inflammatory form of cell death, is triggered by the activation of NLRP3 inflammasome components (GSDMD and Caspase-1), leading to the release of pro-inflammatory cytokines IL-1β and IL-18, as well as damage-associated molecular patterns (DAMPs). This process elicits a cascade of inflammatory responses, which can persist if dysregulated in affected tissues. Given the significant inhibitory potential of CLM-022 against NLRP3 inflammasome and IL-1β secretion, it was proposed that CLM-022 could effectively enhance cell viability by inhibiting pyroptosis in the context of inflammation and inflammasome activation. This example illustrates a comparative study of the abilities of CLM-022 and MCC950 to protect THP-1 cells from inflammasome-induced pyroptosis.
(§2) After LPS and Nigericin treatment, THP-1 cells were treated with either CLM-022 or MCC950 over a dosage range of 0 μM to 10 μM and cell viability was determined by impermeant live/dead staining dye and flow cytometric analysis. Additionally, NLRP3 inflammasome-induced cytotoxicity was investigated by measuring the level of LDH in the conditioned media after the CLM-022 and MCC950 treatments. Further, Western blotting of samples from the THP-1 cell viability assays was carried out to determine levels of the pyroptosis-mediating molecules, GSDMD and Caspase-1.

TNF-α secretion [2] = assay: TNF-α secretion in BMDMs, LPS + Nigericin; format: cell-based, mouse; conditions: FIG. 5B
Method: (§3) This example illustrates a comparative study of CLM-022 and MCC950 in inhibiting NLRP3 inflammasome activity in mouse and human macrophages.
(§4) Bone marrow-derived macrophages (BMDMs) were treated with LPS (100 ng/ml) for 3 hours to induce the expression of inflammatory genes, including TNF-α, NLRP3, and pro-IL-1β. Subsequently, the BMDMs were treated with CLM-022 or MCC950 in a dose range of 0-10 μM for 30 minutes. Then, to fully activate NLRP3-dependent inflammasome activity and cytokine secretion, Nigericin (10 μM) was added to the BMDMs for an additional 30 minutes.

THP-1 cells [3] = assay: THP-1 cell viability (inflammasome-induced pyroptosis), live/dead staining and flow cytometry; format: cell-based, human; conditions: THP-1, LPS and Nigericin; FIG. 7A
Source text: as §1, §2

NLRP3 inflammasome [4] = assay: IL-1β secretion in BMDMs, LPS + Nigericin; format: cell-based, mouse; conditions: Mus musculus, BMDM, LPS (100 ng/ml) + Nigericin (10 μM), 0-10 μM, FIG. 5A, read-out: IC50 for inhibition of IL-1β secretion (normalized)
Method: as §3, §4

NLRP3 inflammasome [5] = assay: IL-1β secretion in THP-1 macrophages, LPS + Nigericin; format: cell-based; conditions: human THP-1 macrophages, LPS (100 ng/ml) + Nigericin (10 μM), 0-10 μM; FIG. 5C; read-out: IC50 for inhibition of IL-1β secretion
Method: as §3
To confirm the inhibitory effect of CLM-022 in human macrophages, THP-1 cells, a human leukemia monocytic cell line, were differentiated into macrophages using phorbol 12-myristate-13-acetate (PMA, 100 ng/ml) treatment for one day. The THP-1 macrophages were then treated with LPS (100 ng/ml) for 3 hours to induce the expression of inflammatory genes. Subsequently, the THP-1 cells were treated with CLM-022 or MCC950 in a dose range of 0-10 μM for 30 minutes. Then, to fully activate NLRP3-dependent inflammasome activity, Nigericin (10 μM) was added to the THP-1 cells for an additional 60 min.

GSDMD and Caspase-1 = GSDMD and Caspase-1 cleavage in THP-1 cells (western blot); format: cell-based; conditions: Homo sapiens; THP-1, western blot; FIG. 7C; read-out: concentration inhibiting GSDMD and Caspase-1 cleavage
Source text: as §1, §2

[6] = test system: LPS-induced acute inflammation; assay: LPS-induced septic shock mouse model, cytokine expression in serum (ELISA) and colonic mucosa (qPCR); format: in vivo; conditions: 1 mg/kg i.p. 1 hour before LPS (25 mg/kg, i.p.), 4 hours post LPS, ELISA; FIG. 4A
Method: FIG. 4A, and FIG. 4B depict results showing that compound 22 (CLM-022) decreased the production of pro-inflammatory cytokines in the LPS-induced septic shock mouse model as described in Example 17. Compound 1 (CLM-001) and compound 22 (CLM-022) (1 mg/kg) injected intraperitoneally 1 hour prior to septic shock induction by administering sublethal dose of LPS (25 mg/kg, i.p.), mice were sacrificed 4 hours post LPS injection, and subjected to measurement of inflammatory cytokine expression. FIG. 4A depicts plot of data showing that the level of TNF-α decreased in the serum of compound 1 and compound 22 treated mice.
This example illustrates a study of the inhibitory function of an exemplary celastrol derivative of the present disclosure (compound 22) against LPS-induced acute inflammation in vivo, we set up LPS-induced septic shock mouse model (Yu et al., 2017) and detected the expression levels of inflammatory cytokines in colon.
Mice (n=3 per group) were administered intraperitoneally (i.p.) with control vehicle, compound 1 (1 mg/kg), or compound 22 (1 mg/kg). After 1 hour, mice were administered by i.p. injection a sublethal dose of LPS (25 mg/kg). Four hours later, the mice were subjected to blood collection and harvesting colonic mucosa by scraping colon. Cytokine expression was measured by conducting ELISA (Cat #900-T54, PeproTech) for TNF-α on blood serum samples and qPCR for the cytokines, IL-1 (TaqMan, Mm00434228), IL-6 (TaqMan, Mm00446190), TNF-α (TaqMan, 00443258), iNOS (TaqMan, 00440502), on colonic mucosa samples.

TNF-α secretion [7] = assay: Secreted TNF-α in conditioned media of BMDC (ELISA), LPS+ATP or LPS+Nigericin; format: cell-based; conditions: 63-500 nM, FIG. 2C
Method: FIG. 2A depicts western blot images showing the relative NLRP3 inflammasome activity of the compounds 22 (CLM-022) and 1 (CLM-001) by detecting the level of cellular ASC complex and the mature form of IL-1β (15 kDa) in a conditioned media of BMDCs treated with LPS (100 ng/ml) for 3 hours and then the compound at 50 nM, 100 nM, and 500 nM concentration for 30 min, followed by ATP or Nigericin. ASC monomer and β-Actin proteins were used as controls. FIG. 2B depict plots of results showing secreted IL-1β levels measured by ELISA using conditioned media of BMDC treated with the compound 22 or compound 1 at 63 nM, 125 nM, 250 nM, and 500 nM, under NLRP3 inflammasome activation induced either by LPS+ATP or LPS+Nigericin. FIG. 2C depict plots of results showing secreted TNF-α levels measured by ELISA using conditioned media of BMDC treated with the compound 22 or compound 1 at 63 nM, 125 nM, 250 nM, and 500 nM, under NLRP3 inflammasome activation induced either by LPS+ATP or LPS+Nigericin.
3. The secreted form of TNF-α, a NLRP3 inflammasome independent cytokine, induced by LPS+ATP or LPS+Nigericin were measured by ELISA assay using the conditioned media of BMDC treated with compound 1 (CLM-1) or compound 22 (CLM-022) at concentrations of 63, 125, 250, 500 nM under NLRP3 inflammasome activation induced either by LPS+ATP or LPS+Nigericin.

[8] = HepG2 NF-kB-Luc reporter cells, IL-1β (20 ng/ml), Example 13, read-out: NF-kB IC50

Structure (SMILES): CC1=C(O)C(=O)C=C2C1=CC=C1[C@@]2(C)CC[C@@]2(C)C3C[C@](C)(NC(=O)C(=O)N4CC5(COC5)C4)CC[C@]3(C)CC[C@]12C (stereo partly drawn) [Compound 15, N-((2R,4aS,6aS,12bR,14aS)-10-hydroxy-2,4a,6a,9,12b,14a-hexamethyl-11-oxo-1,2,3,4,4a,5,6,6a,11,12b,13,14,14a,14b-tetradecahydropicen-2-yl)-2-oxo-2-(2-oxa-6-azaspiro[3.3]heptan-6-yl)acetamide]
- IC50 (NF-kB; [8]): 942 nM
- % IC50 relative to Celastrol (NF-kB): 93%

Structure (SMILES): CC1=C(O)C(=O)C=C2C1=CC=C1[C@@]2(C)CC[C@@]2(C)C3C[C@](C)(N(C)C(=O)C(=O)N4CCN(C)CC4)CC[C@]3(C)CC[C@]12C (stereo partly drawn) [Compound 16, N-((2R,4aS,6aS,12bR,14aS)-10-hydroxy-2,4a,6a,9,12b,14a-hexamethyl-11-oxo-1,2,3,4,4a,5,6,6a,11,12b,13,14,14a,14b-tetradecahydropicen-2-yl)-N-methyl-2-(4-methylpiperazin-1-yl)-2-oxoacetamide]
- IC50 (NF-kB; [8]): 1150 nM
- % IC50 relative to Celastrol (NF-kB): 114%

Structure (SMILES): CC(C)(O)c1coc(S(=O)(=O)NC(=O)Nc2c3c(cc4c2CCC4)CCC3)c1 [MCC950, reference compound]
- IC50 (THP-1 cells [1]; Homo sapiens, 0 μM to 10 μM, read-out: IC50 for LDH release (normalized)): 124 nM
- inhibition of LDH release (THP-1 cells [1]): significantly inhibited release of LDH
- suppression of TNF-α secretion (TNF-α secretion [2]): neither CLM-022 nor MCC950 suppressed TNF-α secretion
- cell viability (in words) (THP-1 cells [3]): A similar effect
- IC50 (NLRP3 inflammasome [4]): 70 nM
- IC50 (NLRP3 inflammasome [5]): 1250 nM
- minimal effective concentration (GSDMD and Caspase-1): 1 µM

Structure (SMILES): CC1=C(O)C(=O)C=C2C1=CC=C1[C@@]2(C)CC[C@@]2(C)[C@@H]3C[C@](C)(C(=O)O)CC[C@]3(C)CC[C@]12C [Compound 1, (2R,4aS,6aR,6aS,14aS,14bR)-10-hydroxy-2,4a,6a,6a,9,14a-hexamethyl-11-oxo-1,3,4,5,6,13,14,14b-octahydropicene-2-carboxylic acid, reference compound]
- IC50 (NF-kB; HepG2, IL-1β (20 ng/ml), 18 hours, normalized, Example 14, FIG. 1B, read-out: IC50 for NF-κB promoter activity): 528 nM
- IC50 (NF-kB; [8]): 667 nM
- level of TNF-α in serum [6]: decreased
- suppression of TNF-α secretion (TNF-α secretion [7]): no significant suppressive effect on TNF-α inflammatory cytokine secretion

Further lines, results first:

- IC50 (NF-kB; [8]): 1160 nM
- % IC50 relative to Celastrol (NF-kB): 115%
Structure (SMILES): CC1=C(O)C(=O)C=C2C1=CC=C1[C@@]2(C)CC[C@@]2(C)C3C[C@](C)(NC(=O)C(=O)N4CCN(C)CC4)CC[C@]3(C)CC[C@]12C (stereo partly drawn) [Compound 14, N-((2R,4aS,6aS,12bR,14aS)-10-hydroxy-2,4a,6a,9,12b,14a-hexamethyl-11-oxo-1,2,3,4,4a,5,6,6a,11,12b,13,14,14a,14b-tetradecahydropicen-2-yl)-2-(4-methylpiperazin-1-yl)-2-oxoacetamide]

- IC50 (NF-kB; [8]): 1640 nM
- % IC50 relative to Celastrol (NF-kB): 163%
Structure (SMILES): CC1=C(O)C(=O)C=C2C1=CC=C1[C@@]2(C)CC[C@@]2(C)C3C[C@](C)(NC(=O)C(=O)NC4CN(C)C4)CC[C@]3(C)CC[C@]12C (stereo partly drawn) [Compound 17, N1-((2R,4aS,6aS,12bR,14aS)-10-hydroxy-2,4a,6a,9,12b,14a-hexamethyl-11-oxo-1,2,3,4,4a,5,6,6a,11,12b,13,14,14a,14b-tetradecahydropicen-2-yl)-N2-(1-methylazetidin-3-yl)oxalamide]
